This passage reports EC50 results from patent US10183013B2, “Cyclic sulfonamide containing derivatives as inhibitors of hedgehog signaling pathway” (NantBioScience, Inc., priority 2012, dated 2019).

SMILES strings stand for the structures.

T1 sequence (Q99835 28-787): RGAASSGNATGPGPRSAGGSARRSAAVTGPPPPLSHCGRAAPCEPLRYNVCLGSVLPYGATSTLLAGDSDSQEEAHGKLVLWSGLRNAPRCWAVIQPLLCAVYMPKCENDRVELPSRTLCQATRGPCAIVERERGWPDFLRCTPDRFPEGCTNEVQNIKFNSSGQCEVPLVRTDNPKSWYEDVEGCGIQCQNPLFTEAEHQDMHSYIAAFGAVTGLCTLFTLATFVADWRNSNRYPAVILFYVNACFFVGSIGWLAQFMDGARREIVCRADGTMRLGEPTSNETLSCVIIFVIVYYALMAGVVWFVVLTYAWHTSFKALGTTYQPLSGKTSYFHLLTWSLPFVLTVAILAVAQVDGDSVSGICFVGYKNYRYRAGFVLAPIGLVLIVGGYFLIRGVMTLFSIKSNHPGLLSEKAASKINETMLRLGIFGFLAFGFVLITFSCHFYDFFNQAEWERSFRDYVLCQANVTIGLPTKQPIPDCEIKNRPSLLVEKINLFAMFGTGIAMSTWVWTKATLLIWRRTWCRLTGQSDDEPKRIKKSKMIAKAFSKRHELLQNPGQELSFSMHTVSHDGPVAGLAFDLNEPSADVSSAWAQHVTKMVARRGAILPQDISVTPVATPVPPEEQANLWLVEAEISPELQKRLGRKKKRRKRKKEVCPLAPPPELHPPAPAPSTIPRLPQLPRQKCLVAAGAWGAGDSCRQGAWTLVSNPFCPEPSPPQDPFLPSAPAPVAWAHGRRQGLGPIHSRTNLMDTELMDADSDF

The first assay has as its system Hedgehog signalling (Gli-bla NIH3T3 cells, mShh stimulated). Nature of the assay: Hedgehog signalling inhibition assay (Gli-Bla reporter assay in NIH 3T3 cells). The following applies: Mus musculus, NIH3T3, 24 h; read-out: EC50. It is filed as cell-based. The method, then: Hedgehog signalling inhibition assays. The following table 2 represents the average EC50 values for particular compounds of the inventions. Gli-bla NIH3T3 cells (7500 cells/well) were plated the day prior to the assay in a 384-well and 96-format in complete growth medium. […] Cells were stimulated with mShh for 24 hours and then loaded with LiveBLAzer™-FRET B/G Substrate for 3 hours. Emission values at 460 nm and 530 nm were obtained using a standard fluorescence plate reader and the 460/530 Ratios plotted for each treatment (n=4 for each data point).
J. Cancer, 2011, 30(7):472-81).
A general note: In a reporter assay the amount or activity of a reporter protein is the signal.
In the case of `O=C(Nc1ccc(Cl)c(-c2nccc3ccccc23)c1)c1ccc(N2CCCCS2(=O)=O)cc1` [Example 94], the EC50 is less than 10 nM.

As for `O=C(Nc1ccc(Cl)c(Oc2cccc(Cl)c2)c1)c1ccc(N2CCOCS2(=O)=O)cc1Cl` [Example 137], the EC50 is less than 10 nM.

Turning to `O=C(Nc1ccc(Cl)c(-c2ncc3ccccc3n2)c1)c1ccc(N2CCCS2(=O)=O)cc1` [Example 89], the 50% effective concentration (EC50) is 14000 nM.

`O=C(Nc1cc(NC(=O)c2ccc(N3CCCS3(=O)=O)cc2Cl)ccc1Cl)c1cccc(Cl)c1` [Example 120]: the EC50 was less than 10 nM.

Consider `O=C(Nc1ccc(Cl)c(-c2ccccn2)c1)c1ccc(N2CCCS2(=O)=O)cc1` [Example 84], for which the EC50 was less than 10 nM.

`O=C(Nc1ccc(Cl)c(-c2ncc3ccccc3n2)c1)c1ccc(N2CCCCS2(=O)=O)cc1` [Example 95]: the concentration giving a half-maximal response (EC50) is less than 10 nM.

Take `O=C(Nc1ccc(Cl)c(-c2nccc3ccccc23)c1)c1ccc(N2CCCCS2(=O)=O)cc1Cl` [Example 98]: the EC50 was less than 10 nM.

`O=C(Nc1ccc(Cl)c(-c2nccc3ccccc23)c1)c1ccc(N2CCCCS2(=O)=O)c(Cl)c1` [Example 115]: the EC50 is less than 10 nM.

On to `CC(=O)Nc1cc(NC(=O)c2ccc(N3CCOCS3(=O)=O)cc2Cl)ccc1Cl` [Example 143], for which the EC50 is less than 10 nM.

As for `O=C(Nc1cc(NC(=O)c2ccc(N3CCCS3(=O)=O)cc2Cl)ccc1Cl)c1cccnc1` [Example 135, N-(2-chloro-5-(2-chloro-4-(1,1-dioxidoisothiazolidin-2-yl)benzamido)phenyl) nicotinamide], the EC50 is less than 10 nM.

With `O=C(Nc1ccc(Cl)c(NC(=O)c2cccnc2)c1)c1ccc(N2CCCS2(=O)=O)c(F)c1` [Example 119], the EC50 was less than 10 nM.

With `O=C(Nc1cc(NC(=O)c2ccc(N3CCOCS3(=O)=O)cc2Cl)ccc1Cl)c1cccc(Cl)c1` [Example 130], the concentration for a half-maximal effect (EC50) is less than 10 nM.

On to `O=C(Nc1ccc(Cl)c(-c2ccccn2)c1)c1ccc(N2CCOCS2(=O)=O)cc1F` [Example 123, N-(4-chloro-3-(pyridin-2-yl)phenyl)-4-(3,3-dioxido-1,3,4-oxathiazinan-4-yl)-2-fluorobenzamide], for which the EC50 is less than 10 nM.

In the case of `O=C(Nc1ccc(Cl)c(NC(=O)c2ccccc2)c1)c1ccc(N2CCCS2(=O)=O)c(F)c1` [Example 118], the 50% effective concentration (EC50) was less than 10 nM.

Turning to `O=C(Nc1ccc(Cl)c(-c2ncc3ccccc3n2)c1)c1ccc(N2CCCCS2(=O)=O)cc1Cl` [Example 100], the concentration giving a half-maximal response (EC50) was less than 10 nM.

For `O=C(Nc1ccc(Cl)c(-c2nccc3ncccc23)c1)c1ccc(N2CCOCS2(=O)=O)cc1F` [Example 116, N-(4-chloro-3-(1,6-naphthyridin-5-yl)phenyl)-4-(3,3-dioxido-1,3,4-oxathiazinan-4-yl)-2-fluorobenzamide], the EC50 was less than 10 nM.

With `O=C(Nc1ccc(Cl)c(Oc2cccc(Cl)c2)c1)c1ccc(N2CCCS2(=O)=O)cc1Cl` [Example 131], the EC50 was less than 10 nM.

Take `O=C(Nc1ccc(Cl)c(NC(=O)c2cccc(Cl)c2)c1)c1ccc(N2CCCS2(=O)=O)cc1` [Example 129]: the EC50 is less than 10 nM.

Consider `O=C(Nc1cc(NC(=O)c2ccc(N3CCOCS3(=O)=O)cc2Cl)ccc1Cl)c1ccc(Cl)cc1` [Example 126, 2-chloro-N-(4-chloro-3-(4-chlorobenzamido)phenyl)-4-(3,3-dioxido-1,3,4-oxathiazinan-4-yl)benzamide], for which the EC50 is less than 10 nM.

`O=C(Nc1ccc(Cl)c(-c2nccc3ncccc23)c1)c1ccc(N2CCCS2(=O)=O)c(Cl)c1` [Example 113]: the 50% effective concentration (EC50) was less than 10 nM.

Still in this assay, the particulars now being: Mus musculus, NIH3T3; NIH 3T3 cells; read-out: Gli-Bla reporter assay (EC50).
On to `CS(=O)(=O)c1ccc(C(=O)Nc2ccc(Cl)c(-c3ccccn3)c2)c(Cl)c1` [GDC-0449, reference compound], for which the EC50 stood at 7 nM.

Still in this assay, the particulars now being: NIH 3T3 cells; read-out: Gli-Bla reporter assay (EC50).
Turning to `Cc1nn(-c2ccccc2)c(C)c1/C=N/N1CCN(Cc2ccccc2)CC1` [Sant-1, reference compound], the 50% effective concentration (EC50) worked out at 5 nM.

The next assay has as its target T1, SMO (Homo sapiens, UniProt Q99835).
T1 construct: host or cells: HEK293H cells
Nature of the assay: SMO BODIPY-CYC binding assay using HEK293H cells.
Conditions: not given
Regarding `Cc1nn(-c2ccccc2)c(C)c1/C=N/N1CCN(Cc2ccccc2)CC1` [Sant-1, reference compound], the EC50 turned out to be 0.592 nM.

The term EC50 denotes the concentration giving half of the maximal effect.
